In PMC9929129, “Towards Translation of PqsR Inverse Agonists: From In Vitro Efficacy Optimization to In Vivo Proof‐of‐Principle” (Advanced Science, 2023):

Columns and labels:
[1] = In vivo PK study, intratracheal (IT) and intravenous (IV); settings: for Tmax / CL/F / Vd/F / half-life: male, CD1, mouse; for Cl/F_obs / Vz/F_obs: […] IV
Procedure: The enzymatic activity of the MLM
First, a calibration curve was prepared by […]
lavage fluid (BALF). Caffeine was used as
The in live part for the IV and IT PK studies were performed at CRO Saretius (UK). Groups of male CD1 […]
light/dark cycle with free access to food and water. Temperature and humidity were controlled according to U.K. HO regulations. On the day of the study, mice were briefly anesthetized with isoflurane before suspending the mouse by its upper incisors on a board held at an angle of approx.
45 degrees. Mice were then dosed intratracheally with the compound (24 or Tob) at the designated does formulated in ethanol/tyloxapol/glycerol/phosphate-buffered saline (PBS) [10:1:5:84] in a 1 mL/kg dosing volume up to a maximum of 30 µL per mouse. A laryngoscope was used to facilitate dosing. Animals were allowed to recover before replacing into their home cages. Terminal blood samples were then taken from groups of 3 mice at each of eight time points post-dose by cardiac puncture under CO2. Blood samples were placed in tubes on ice containing EDTA anticoagulant. After gentle mixing, samples were centrifuged (10,000 rpm x 3 min) and two 50 μL aliquots taken into fresh tubes that were immediately frozen on dry ice. Following blood sample collection, tracheas were exposed and a small incision made. An 18 Gauge plastic tube was then inserted through the incision into the trachea and tied in place. Aliquots of 0.8 mL of sterile saline were then infused into and then withdrawn from the lungs and the collected bronchoalveolar lavage (BALF) sample placed into a tube. This process was repeated two more times, and the samples from each mouse pooled. […]
frozen by immersion in liquid nitrogen.

AhR receptor = biological target: T1, AhR receptor (Homo sapiens, UniProt P35869); assay: AhR nuclear receptor activation, luciferase reporter gene assay; type: cell-based
T1 construct: Cyprotex
T1 sequence (P35869 11-848): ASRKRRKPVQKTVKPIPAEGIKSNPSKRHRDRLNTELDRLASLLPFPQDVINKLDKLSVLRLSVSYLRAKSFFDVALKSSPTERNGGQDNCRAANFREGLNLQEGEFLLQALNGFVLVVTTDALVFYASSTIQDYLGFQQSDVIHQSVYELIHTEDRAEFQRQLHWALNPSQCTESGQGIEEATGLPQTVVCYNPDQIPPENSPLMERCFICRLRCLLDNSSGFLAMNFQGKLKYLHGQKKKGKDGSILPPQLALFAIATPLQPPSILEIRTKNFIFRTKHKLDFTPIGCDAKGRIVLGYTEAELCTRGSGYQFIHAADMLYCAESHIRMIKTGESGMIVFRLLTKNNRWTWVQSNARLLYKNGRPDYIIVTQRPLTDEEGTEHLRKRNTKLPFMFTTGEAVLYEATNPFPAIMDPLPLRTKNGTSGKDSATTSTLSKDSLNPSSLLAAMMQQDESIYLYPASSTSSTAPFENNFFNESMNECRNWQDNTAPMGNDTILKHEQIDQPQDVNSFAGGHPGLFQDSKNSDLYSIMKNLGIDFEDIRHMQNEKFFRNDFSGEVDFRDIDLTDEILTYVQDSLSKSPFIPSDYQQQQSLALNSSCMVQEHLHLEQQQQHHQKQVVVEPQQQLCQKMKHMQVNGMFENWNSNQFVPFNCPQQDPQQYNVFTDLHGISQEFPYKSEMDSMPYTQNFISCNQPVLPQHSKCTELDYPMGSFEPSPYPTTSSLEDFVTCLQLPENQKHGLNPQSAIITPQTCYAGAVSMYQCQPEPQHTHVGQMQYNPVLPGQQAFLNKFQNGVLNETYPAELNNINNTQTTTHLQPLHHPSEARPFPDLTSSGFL
Procedure: 1.4.4 Pharmacokinetic and off-target functional assays (Cyprotex)
Compound 24 was assayed at Cyprotex in functional assays for interference with important off-targets as well as important pharmacokinetic parameters. With the exception of plasma protein binding, a dose-response relationship was studied in order to calculate IC50 values.
Table S10. Information on in vitro ADMET assays performed at Cyprotex. […]
An increase in the number of colonies of at least two-fold over baseline (mean + SD of the vehicle control) and a dose response indicate a positive response. An […]
different from the vehicle control.
Where indicated, S9 fraction from the livers of Aroclor 1254-treated rats were included in the incubation at a final concentration of 4.5%. A NADPH-regenerating system was also included to ensure a steady supply of reducing equivalents.

[2] = biological target: T2, Nav1.5 human sodium ion channel (Homo sapiens, UniProt Q14524); assay: Nav1.5 automated patch clamp CiPA assay (Eurofins); type: cell-based
T2 construct: Eurofins CYL8004QP2DR
Procedure: 1.4.2 Further functional off-target assays (Eurofins)
Table S8. Compound 24 was further tested in the following functional assays at Eurofins.
ASSAY NAME ESTIMATED IC50 [µM] […]
Nav1.5 human sodium ion channel cell based automated patch clamp >30 µM
CiPA assay (CYL8004QP2DR) […]
FLIPR Assay expressed in HEK293 cells
GABAA α5/β3/γ2 ionotropic receptor (human GABRA5, GABRB3, >30
and GABRG2 genes, expressed in HEK293 cells

5-HT transporter (h) = biological target: T3, 5-HT transporter (h) (Homo sapiens, UniProt P31645); assay: Cerep panel binding assay; settings: antagonist radioligand
T3 construct: purchased Eurofins Pharma Discovery (Cerep) SafetyScreen44 Panel, ITEM P270
T3 sequence (P31645 whole entry): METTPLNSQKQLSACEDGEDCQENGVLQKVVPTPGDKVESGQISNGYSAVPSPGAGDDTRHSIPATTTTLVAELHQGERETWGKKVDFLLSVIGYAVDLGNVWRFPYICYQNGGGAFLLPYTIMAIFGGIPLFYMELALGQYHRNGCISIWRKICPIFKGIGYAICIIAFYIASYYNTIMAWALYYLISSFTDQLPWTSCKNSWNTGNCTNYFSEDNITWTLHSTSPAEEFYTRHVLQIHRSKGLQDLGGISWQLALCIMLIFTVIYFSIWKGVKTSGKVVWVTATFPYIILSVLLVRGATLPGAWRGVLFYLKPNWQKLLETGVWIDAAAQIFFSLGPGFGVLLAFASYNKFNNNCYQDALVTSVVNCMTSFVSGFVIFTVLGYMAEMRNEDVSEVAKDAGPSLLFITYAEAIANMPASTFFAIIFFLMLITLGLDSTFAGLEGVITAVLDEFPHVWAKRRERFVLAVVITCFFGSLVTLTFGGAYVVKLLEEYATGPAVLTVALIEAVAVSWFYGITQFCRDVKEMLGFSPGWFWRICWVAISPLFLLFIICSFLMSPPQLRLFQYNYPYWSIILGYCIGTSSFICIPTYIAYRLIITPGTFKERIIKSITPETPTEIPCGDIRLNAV
Procedure: (§1) 1.4 Safety Pharmacology of Compound 24
(§2) 1.4.1 Cerep panel (Eurofins)
(§3) Compound 24 was further profiled for its off-target interactions against a panel of 44 targets. The
(§4) screening was done by Eurofins Pharma Discovery within the SafetyScreen44 Panel (Cerep, ITEM
(§5) P270). In all assays binding/functional inhibition was determined at 10 µM.
(§6) Table S6. […]

5-HT3 (h) = biological target: T4, 5-HT3 (h) (Homo sapiens, UniProt P46098); assay: Cerep panel binding assay; settings: antagonist radioligand
T4 construct: purchased Eurofins Pharma Discovery (Cerep) SafetyScreen44 Panel, ITEM P270
Procedure: as §1, §2, §3, §4, §5, §6

A2A (h) = biological target: T5, A2A (h) (Homo sapiens, UniProt P29274); assay: Cerep panel binding assay; settings: 10 µM, agonist radioligand
T5 construct: Eurofins Pharma Discovery (CRO that ran the assay) SafetyScreen44 Panel (Cerep, ITEM P270)
T5 sequence (P29274 whole entry): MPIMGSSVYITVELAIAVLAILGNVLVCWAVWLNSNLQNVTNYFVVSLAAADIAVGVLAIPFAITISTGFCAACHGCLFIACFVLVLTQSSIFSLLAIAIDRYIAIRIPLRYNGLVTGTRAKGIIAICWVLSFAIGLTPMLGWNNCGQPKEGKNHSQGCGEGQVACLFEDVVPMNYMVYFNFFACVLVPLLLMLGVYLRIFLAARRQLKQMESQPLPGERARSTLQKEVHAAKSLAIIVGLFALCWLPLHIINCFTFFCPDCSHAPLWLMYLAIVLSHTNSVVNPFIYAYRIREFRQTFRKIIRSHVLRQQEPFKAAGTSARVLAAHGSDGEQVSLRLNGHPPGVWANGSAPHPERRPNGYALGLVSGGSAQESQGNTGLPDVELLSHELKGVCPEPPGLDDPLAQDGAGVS
Procedure: as §1, §2, §3, §4, §5, §6

AR (h) = biological target: T6, AR (h) (Homo sapiens, UniProt P10275, T878A); assay: Cerep panel binding assay; settings: agonist radioligand
T6 construct: purchased Eurofins Pharma Discovery (Cerep) SafetyScreen44 Panel, ITEM P270
Procedure: as §1, §2, §3, §4, §5, §6

BZD (central) = assay: Cerep panel binding assay; settings: 10 µM, agonist radioligand
Procedure: as §1, §2, §3, §4, §5, §6

CB2 (h) = biological target: T7, CB2 (h) (Homo sapiens, UniProt P34972); assay: Cerep panel binding assay; settings: agonist radioligand
T7 construct: purchased Eurofins Pharma Discovery (Cerep) SafetyScreen44 Panel, ITEM P270
Procedure: as §1, §2, §3, §4, §5, §6

CCK1 (CCKA) (h) = biological target: T8, CCK1 (CCKA) (h) (Homo sapiens, UniProt P32238); assay: Cerep panel binding assay; settings: agonist radioligand
T8 construct: Eurofins Pharma Discovery (CRO that ran the assay) SafetyScreen44 Panel (Cerep, ITEM P270)
Procedure: as §1, §2, §3, §4, §5, §6

D1 (h) = biological target: T9, D1 (h) (Homo sapiens, UniProt P21728); assay: Cerep panel binding assay; settings: antagonist radioligand
T9 construct: purchased Eurofins Pharma Discovery (Cerep) SafetyScreen44 Panel, ITEM P270
Procedure: as §1, §2, §3, §4, §5, §6

D2S (h) = biological target: T10, D2S (h) (Homo sapiens, UniProt P14416); assay: Cerep panel binding assay; settings: agonist radioligand
T10 construct: Eurofins Pharma Discovery (CRO that ran the assay) SafetyScreen44 Panel (Cerep, ITEM P270)
T10 sequence (P14416 1-414 isoform P14416-2): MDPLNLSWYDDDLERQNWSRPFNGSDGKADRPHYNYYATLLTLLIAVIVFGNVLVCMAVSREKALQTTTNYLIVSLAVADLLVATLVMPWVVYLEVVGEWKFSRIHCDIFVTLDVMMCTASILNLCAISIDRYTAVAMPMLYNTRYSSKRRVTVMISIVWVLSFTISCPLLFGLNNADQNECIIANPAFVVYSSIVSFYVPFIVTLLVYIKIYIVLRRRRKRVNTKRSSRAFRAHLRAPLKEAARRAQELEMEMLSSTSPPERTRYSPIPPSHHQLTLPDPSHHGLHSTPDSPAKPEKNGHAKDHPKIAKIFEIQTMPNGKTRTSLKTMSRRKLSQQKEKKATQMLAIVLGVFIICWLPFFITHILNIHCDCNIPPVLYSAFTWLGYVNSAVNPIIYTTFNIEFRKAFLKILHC
Procedure: as §1, §2, §3, §4, §5, §6

ETA (h) = biological target: T11, ETA (h) (Homo sapiens, UniProt P25101); assay: Cerep panel binding assay; settings: agonist radioligand
T11 construct: Eurofins Pharma Discovery (CRO that ran the assay) SafetyScreen44 Panel (Cerep, ITEM P270)
Procedure: as §1, §2, §3, §4, §5, §6

H1 (h) = biological target: T12, H1 (h) (Homo sapiens, UniProt P35367); assay: Cerep panel binding assay; settings: antagonist radioligand
T12 construct: purchased Eurofins Pharma Discovery (Cerep) SafetyScreen44 Panel, ITEM P270
T12 sequence (P35367 whole entry): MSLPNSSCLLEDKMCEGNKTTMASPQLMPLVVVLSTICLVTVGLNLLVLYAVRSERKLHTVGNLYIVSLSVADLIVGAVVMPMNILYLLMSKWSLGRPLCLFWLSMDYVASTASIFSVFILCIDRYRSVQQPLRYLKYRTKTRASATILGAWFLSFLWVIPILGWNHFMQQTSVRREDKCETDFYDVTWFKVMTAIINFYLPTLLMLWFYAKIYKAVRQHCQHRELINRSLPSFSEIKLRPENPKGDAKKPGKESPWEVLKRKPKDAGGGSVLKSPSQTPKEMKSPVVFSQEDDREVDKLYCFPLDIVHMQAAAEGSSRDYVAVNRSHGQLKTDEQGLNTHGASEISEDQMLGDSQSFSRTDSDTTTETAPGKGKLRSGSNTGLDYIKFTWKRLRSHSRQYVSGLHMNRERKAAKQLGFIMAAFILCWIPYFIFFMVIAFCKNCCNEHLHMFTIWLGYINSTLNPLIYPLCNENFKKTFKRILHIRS
Procedure: as §1, §2, §3, §4, §5, §6

M1 (h) = biological target: T13, M1 (h) (Homo sapiens, UniProt P11229); assay: Cerep panel binding assay; settings: antagonist radioligand
T13 construct: Eurofins Pharma Discovery (CRO that ran the assay) SafetyScreen44 Panel (Cerep, ITEM P270)
Procedure: as §1, §2, §3, §4, §5, §6

M2 (h) = biological target: T14, M2 (h) (Homo sapiens, UniProt P08172); assay: Cerep panel binding assay; settings: antagonist radioligand
T14 construct: Eurofins Pharma Discovery (CRO that ran the assay) SafetyScreen44 Panel (Cerep, ITEM P270)
Procedure: as §1, §2, §3, §4, §5, §6

MAO-A = biological target: T15, MAO-A (Rattus norvegicus, UniProt P21396); assay: Cerep panel binding assay; settings: antagonist radioligand
T15 construct: purchased Eurofins Pharma Discovery (Cerep) SafetyScreen44 Panel, ITEM P270
T15 sequence (P21396 whole entry): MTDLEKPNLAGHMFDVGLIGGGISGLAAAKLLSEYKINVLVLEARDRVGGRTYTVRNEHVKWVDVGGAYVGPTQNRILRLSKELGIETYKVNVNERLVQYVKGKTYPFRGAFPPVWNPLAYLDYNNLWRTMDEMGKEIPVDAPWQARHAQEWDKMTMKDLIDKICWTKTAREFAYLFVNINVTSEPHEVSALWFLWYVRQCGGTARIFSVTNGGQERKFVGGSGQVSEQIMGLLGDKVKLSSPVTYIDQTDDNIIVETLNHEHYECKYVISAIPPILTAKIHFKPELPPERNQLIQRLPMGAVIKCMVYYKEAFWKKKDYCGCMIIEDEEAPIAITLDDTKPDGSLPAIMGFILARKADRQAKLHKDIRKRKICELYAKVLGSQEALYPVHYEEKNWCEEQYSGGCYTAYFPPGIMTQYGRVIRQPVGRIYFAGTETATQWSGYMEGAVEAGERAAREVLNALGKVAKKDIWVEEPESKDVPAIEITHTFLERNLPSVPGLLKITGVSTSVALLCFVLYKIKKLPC
Procedure: as §1, §2, §3, §4, §5, §6

[3] = biological target: T16, N neuronal alpha4beta2 (h) (Homo sapiens, UniProt P17787+P43681); assay: Cerep panel binding assay; settings: agonist radioligand
T16 construct: Eurofins Pharma Discovery (CRO that ran the assay) SafetyScreen44 Panel (Cerep, ITEM P270)
T16 sequence (P43681 29-627 limits assumed): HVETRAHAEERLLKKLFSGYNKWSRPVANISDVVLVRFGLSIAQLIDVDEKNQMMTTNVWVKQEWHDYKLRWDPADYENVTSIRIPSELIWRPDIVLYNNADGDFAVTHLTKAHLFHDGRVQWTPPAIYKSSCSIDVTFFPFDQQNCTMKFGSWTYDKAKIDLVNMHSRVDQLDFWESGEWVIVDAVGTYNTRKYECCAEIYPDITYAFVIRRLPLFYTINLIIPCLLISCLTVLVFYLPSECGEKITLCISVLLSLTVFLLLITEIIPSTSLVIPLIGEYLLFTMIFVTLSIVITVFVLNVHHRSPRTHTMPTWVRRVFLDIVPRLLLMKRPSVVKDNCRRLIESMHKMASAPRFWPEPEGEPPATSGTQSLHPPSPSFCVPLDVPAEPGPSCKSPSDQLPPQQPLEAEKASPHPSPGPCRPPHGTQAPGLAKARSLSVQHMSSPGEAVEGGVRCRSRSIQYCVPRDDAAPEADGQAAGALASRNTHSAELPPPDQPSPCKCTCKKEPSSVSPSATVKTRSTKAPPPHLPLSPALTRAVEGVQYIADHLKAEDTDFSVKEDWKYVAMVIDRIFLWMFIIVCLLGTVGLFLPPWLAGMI
T16 sequence (P17787 26-502): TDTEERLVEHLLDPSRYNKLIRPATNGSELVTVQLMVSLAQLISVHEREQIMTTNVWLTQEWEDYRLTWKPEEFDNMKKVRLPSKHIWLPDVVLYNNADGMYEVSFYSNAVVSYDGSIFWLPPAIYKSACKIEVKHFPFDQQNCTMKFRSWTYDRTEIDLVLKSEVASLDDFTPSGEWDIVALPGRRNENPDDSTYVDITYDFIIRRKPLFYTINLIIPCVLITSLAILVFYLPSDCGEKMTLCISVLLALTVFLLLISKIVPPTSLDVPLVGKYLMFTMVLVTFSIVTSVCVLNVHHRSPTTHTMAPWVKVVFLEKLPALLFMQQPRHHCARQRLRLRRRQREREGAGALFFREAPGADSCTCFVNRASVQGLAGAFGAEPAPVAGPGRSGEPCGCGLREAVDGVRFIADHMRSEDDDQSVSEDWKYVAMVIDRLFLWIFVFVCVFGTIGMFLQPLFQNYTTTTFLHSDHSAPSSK
Procedure: as §1, §2, §3, §4, §5, §6

NMDA = assay: Cerep panel binding assay; settings: 10 µM, antagonist radioligand
Procedure: as §1, §2, §3, §4, §5, §6

alpha1A (h) = biological target: T17, alpha1A (h) (Homo sapiens, UniProt P35348); assay: Cerep panel binding assay; settings: antagonist radioligand
T17 construct: purchased Eurofins Pharma Discovery (Cerep) SafetyScreen44 Panel, ITEM P270
Procedure: as §1, §2, §3, §4, §5, §6

delta (DOP) (h) = biological target: T18, delta (DOP) (h) (Homo sapiens, UniProt P41143); assay: Cerep panel binding assay; settings: agonist radioligand
T18 construct: purchased Eurofins Pharma Discovery (Cerep) SafetyScreen44 Panel, ITEM P270
T18 sequence (P41143 whole entry): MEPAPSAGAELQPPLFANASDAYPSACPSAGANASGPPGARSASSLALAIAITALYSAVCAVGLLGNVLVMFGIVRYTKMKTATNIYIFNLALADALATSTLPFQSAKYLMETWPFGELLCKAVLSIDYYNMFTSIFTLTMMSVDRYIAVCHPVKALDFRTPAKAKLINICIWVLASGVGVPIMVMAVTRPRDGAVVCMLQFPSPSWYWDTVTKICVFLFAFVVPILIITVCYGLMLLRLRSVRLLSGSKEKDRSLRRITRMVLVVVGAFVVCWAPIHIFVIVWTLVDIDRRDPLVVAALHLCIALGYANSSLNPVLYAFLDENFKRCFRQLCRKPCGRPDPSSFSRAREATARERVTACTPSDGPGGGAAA
Procedure: as §1, §2, §3, §4, §5, §6

kappa (h) (KOP) = biological target: T19, kappa (h) (KOP) (Homo sapiens, UniProt P41145); assay: Cerep panel binding assay; settings: agonist radioligand
T19 construct: purchased Eurofins Pharma Discovery (Cerep) SafetyScreen44 Panel, ITEM P270
Procedure: as §1, §2, §3, §4, §5, §6

[4] = epithelial lining fluid, iv, ELF Tmax

`NC[C@H]1O[C@H](O[C@H]2[C@H](O)[C@@H](O[C@H]3O[C@H](CO)[C@@H](O)[C@H](N)[C@H]3O)[C@H](N)C[C@@H]2N)[C@H](N)C[C@@H]1O` [Tobramycin, tobramycin] gave a Tmax ([1]; epithelial lining fluid, inhaled or intranasal, ELF Tmax, […] IT) of 40.2 ± 18 min, a Tmax [1, 4] of 8.4 ± 6 min and a Tmax ([1]; lung, inhaled or intranasal, Lung Tmax, lung tissue, […] IT) of 49.8 ± 18 min. For the same molecule, the CL/F ([1]; plasma, inhaled or intranasal) was 0.912 ± 0.48 L/h/kg, the Vd/F ([1]; plasma, inhaled or intranasal) was 1.02 ± 0.4 L/kg and the half-life ([1]; plasma, inhaled or intranasal) was 48.6 ± 12 min. For the same molecule, the Tmax ([1]; plasma, inhaled or intranasal, Tmax, […] IT) was 40.2 ± 18 min, the half-life ([1]; plasma, iv) was 15 ± 6 min and the Cl/F_obs ([1]; plasma) was 1.679 ± 0.108 L/h/kg. For the same molecule, the Vz/F_obs ([1]; plasma) was 0.60 ± 0.2 L/kg.

With `CC(C)Oc1ccc(-c2ncc(CNc3ccnc(C(F)(F)F)c3)cn2)cc1Cl` [Compound 24] the “fold AhR receptor induction” value (AhR receptor; fold activation @1 × 10^−6 M) was 0.91 @1 × 10^−6 M ^a), the AhR induction (AhR receptor; up to 25 × 10^−6 M) was “Neither AhR induction” and the IC50 [2] was over 30 µM. The inhibition at 10 µM (5-HT transporter (h)) was 49.8%, the inhibition at 10 µM (5-HT3 (h)) was 4.4% and the “BINDING (%)” value (A2A (h)) was 2.2%. For the same molecule, the inhibition at 10 µM (AR (h)) was 12.7%, the “BINDING (%)” value (BZD (central)) was “–27.1%” and the inhibition at 10 µM (CB2 (h)) was 31%. It also gave an inhibition at 10 µM (CCK1 (CCKA) (h)) of -12%, an inhibition at 10 µM (D1 (h)) of 12.2% and an inhibition at 10 µM (D2S (h)) of -0.6%. For the same molecule, the inhibition at 10 µM (ETA (h)) was -0.3%, the inhibition at 10 µM (H1 (h)) was 8.2% and the inhibition at 10 µM (M1 (h)) was -5.9%. It also gave an inhibition at 10 µM (M2 (h)) of 0%, an inhibition at 10 µM (MAO-A) of 24.9% and an inhibition at 10 µM [3] of -4.7%. The “BINDING (%)” value (NMDA) was 0.9%, the inhibition at 10 µM (alpha1A (h)) was 3.4% and the inhibition at 10 µM (delta (DOP) (h)) was 14.5%. It also gave an inhibition at 10 µM (kappa (h) (KOP)) of 23.6%, a Tmax [1, 4] of 40.2 ± 54 min and a CL/F ([1]; in vivo, inhaled or intranasal) of 0.048 ± 0.006 L/h/kg. For the same molecule, the Vd/F ([1]; in vivo, inhaled or intranasal) was 0.06 L/kg, the half-life ([1]; in vivo, inhaled or intranasal) was 48.6 min and the Tmax ([1]; in vivo, inhaled or intranasal, ELF Tmax) was 30 min. For the same molecule, the Tmax ([1]; in vivo, inhaled or intranasal, Lung Tmax) was 40.2 ± 18 min, the Tmax ([1]; in vivo, inhaled or intranasal, Tmax) was 40.2 ± 18 min and the Tmax ([1]; lung tissue, iv, Lung Tmax) was 4.8 min. The half-life ([1]; plasma, iv) was 63 ± 6 min, the Cl/F_obs ([1]; plasma) was 0.0126 ± 0 L/h/kg and the Vz/F_obs ([1]; plasma) was 0.02 ± 0.0 L/kg.
